The source of these data is patent US8933018B2, “Boron containing polybasic bacterial efflux pump inhibitors and therapeutic uses thereof” (priority 2011, dated 2015).

Structures are written as SMILES.

The subject of the assay is P. aeruginosa, PAM1723, overexpressing the MexAB-OprM efflux pump. The assay is classed as cell-based, Pseudomonas aeruginosa. The settings on record: lowest EPI concentration giving antibacterial activity with levofloxacin at 1/8 of its MIC, MHB, 20 h at 35° C. How it is done: All EPI compounds were readily soluble in water and stock solutions were prepared at a final concentration of 10 mg/ml. Stock solutions were further diluted, according to the needs of the particular assay, in Mueller Hinton Broth (MHB). Stock solution was stored at […].
The checkerboard assay was performed in microtiter plates. […] EPIs were diluted in the y-axis, each row containing a single concentration of an EPI. […] The assay was performed in MHB with a final bacterial inoculum of 5 times 10^5 CFU/ml (from an early-log phase culture). Microtiter plates were incubated during 20 h at 35° C. and were read using a microtiter plate reader (Molecular Devices) at 650 nm as well as visual observation using a microtiter plate-reading mirror.
Regarding `NCCN(CCN)C(=O)CC[C@H](N)C(=O)N[C@H](CCc1ccc(C(F)(F)F)cc1)C(=O)NCC1OB(O)c2ccccc21` (stereo in doubt) [Compound 36, (S)-2-amino-N5,N5-bis(2-aminoethyl)-N1-((R)-1-(((R)-1-hydroxy-1,3-dihydrobenzo[c][1,2]oxaborol-3-yl)methylamino)-1-oxo-4-(4-(trifluoromethyl)phenyl)butan-2-yl)pentanediamide], the “MPC8 (Minimum Potentiating Concentration)” value (from here on “MPC8”) is listed as “B (B = MPC8 of 2.5 μg/ml to less than 10 μg/mL.)”.
For `NCCN(CCN)C(=O)CC[C@H](N)C(=O)N[C@H](Cc1ccc(C(F)(F)F)cc1)C(=O)Nc1ccc2c(c1)B(O)OC2` [Compound 1, (S)-2-amino-N5,N5-bis(2-aminoethyl)-N1-((R)-1-(1-hydroxy-1,3-dihydrobenzo[c][1,2]oxaborol-6-ylamino)-1-oxo-3-(4-(trifluoromethyl)phenyl)propan-2-yl)pentanediamide], the “MPC8” value is listed as “C (C = MPC8 of 10 μg/mL or greater.)”.
Turning to `NCCN(CCN)C(=O)CC[C@H](N)C(=O)N[C@H](Cc1ccc(C(F)(F)F)cc1)C(=O)NCc1ccc(B(O)O)cc1` [Compound 3, 4-(((R)-2-((S)-2-amino-5-(bis(2-aminoethyl)amino)-5-oxopentanamido)-3-(4-(trifluoromethyl)phenyl)propanamido)methyl)phenylboronic acid], the “MPC8” value is listed as “C (C = MPC8 of 10 μg/mL or greater.)”.
`NCCN(CCN)C(=O)C[C@H](N)C(=O)N[C@H](C(=O)Nc1ccc2c(c1)B(O)OC2)[C@H](O)c1ccc(C(F)(F)F)cc1` [Compound 4, (S)-2-amino-N4,N4-bis(2-aminoethyl)-N1-((1R,2S)-1-hydroxy-3-(1-hydroxy-1,3-dihydrobenzo[c][1,2]oxaborol-6-ylamino)-3-oxo-1-(4-(trifluoromethyl)phenyl)propan-2-yl)succinamide]: the “MPC8” value is recorded as “C (C = MPC8 of 10 μg/mL or greater.)”.
Regarding `NCCN(CCN)C(=O)C[C@H](N)C(=O)N[C@H](Cc1ccc(C(F)(F)F)cc1)C(=O)Nc1ccc2c(c1)B(O)OC2` [Compound 5, (S)-2-amino-N4,N4-bis(2-aminoethyl)-N1-((R)-1-(1-hydroxy-1,3-dihydrobenzo[c][1,2]oxaborol-6-ylamino)-1-oxo-3-(4-(trifluoromethyl)phenyl)propan-2-yl)succinamide], the “MPC8” value is “C (C = MPC8 of 10 μg/mL or greater.)”.
On to `NCCN(CCN)C(=O)C[C@H](N)C(=O)N[C@H](CCc1ccc(C(F)(F)F)cc1)C(=O)Nc1ccc2c(c1)B(O)OC2` [Compound 7, (S)-2-amino-N4,N4-bis(2-aminoethyl)-N1-((R)-1-(1-hydroxy-1,3-dihydrobenzo[c][1,2]oxaborol-6-ylamino)-1-oxo-4-(4-(trifluoromethyl)phenyl)butan-2-yl)succinamide], for which the “MPC8” value is “B (B = MPC8 of 2.5 μg/ml to less than 10 μg/mL.)”.
For `NCCN(CCN)C(=O)CC[C@H](N)C(=O)N[C@H](Cc1ccc(C(F)(F)F)cc1)C(=O)Nc1ccccc1B(O)O` [Compound 8, 2-((R)-2-((S)-2-amino-5-(bis(2-aminoethyl)amino)-5-oxopentanamido)-3-(4-(trifluoromethyl)phenyl)propanamido)phenylboronic acid], the “MPC8” value is recorded as “C (C = MPC8 of 10 μg/mL or greater.)”.
Regarding `NCCN(CCN)C(=O)CC[C@H](N)C(=O)N[C@@H](Cc1ccc(C(F)(F)F)cc1)C(=O)Nc1ccccc1B(O)O` [Compound 9, 2-((S)-2-((S)-2-amino-5-(bis(2-aminoethyl)amino)-5-oxopentanamido)-3-(4-(trifluoromethyl)phenyl)propanamido)phenylboronic acid], the “MPC8” value is on record as “C (C = MPC8 of 10 μg/mL or greater.)”.
With `NCCN(CCN)C(=O)C[C@H](N)C(=O)N[C@H](Cc1ccc(C(F)(F)F)cc1)C(=O)Nc1cc(B(O)O)cc(C(F)(F)F)c1` [Compound 10, 3-((R)-2-((S)-2-amino-4-(bis(2-aminoethyl)amino)-4-oxobutanamido)-3-(4-(trifluoromethyl)phenyl)propanamido)-5-(trifluoromethyl)phenylboronic acid] the entry was “B (B = MPC8 of 2.5 μg/ml to less than 10 μg/mL.)”.
